The source of these data is patent publication US20070213359A1 (ACADIA Pharmaceuticals Inc., priority 2005, published 2007).

pKi: −log10 of the molar value.

The target in the first assay is Ghrelin receptor (Homo sapiens, UniProt Q92847). Kind of assay: Receptor Selection and Amplification Technology (R-SAT) assay. In kind it is cell-based. Details: expressed in transfected cells; host or cells: NIH3T3. The following applies: […]; '—' not defined (nd used separately); read-out: RSAT pIC50 (converted).
Chain of Ghrelin receptor (Q92847 whole entry): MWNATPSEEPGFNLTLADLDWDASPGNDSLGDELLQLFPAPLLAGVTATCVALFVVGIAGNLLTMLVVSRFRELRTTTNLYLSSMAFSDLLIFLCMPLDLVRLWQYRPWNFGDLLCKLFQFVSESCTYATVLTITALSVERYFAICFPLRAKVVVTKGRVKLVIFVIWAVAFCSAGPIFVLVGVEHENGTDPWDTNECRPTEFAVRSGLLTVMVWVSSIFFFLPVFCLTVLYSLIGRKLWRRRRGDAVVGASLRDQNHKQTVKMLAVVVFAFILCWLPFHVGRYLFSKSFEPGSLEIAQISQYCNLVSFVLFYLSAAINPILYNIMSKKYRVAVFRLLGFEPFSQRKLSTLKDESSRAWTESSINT
With `COc1cccc2c(C(=O)NCc3cccc(Cl)c3)cn(CCCN3CCN(CCOc4ccccc4)CC3)c12`, the IC50 was 0.0794 µM.

Turning to `COc1cccc2c(C(=O)NCc3cccc(C)c3)cn(CCCN3CCC(c4nc(-c5cccnc5)no4)CC3)c12`, the IC50 was 0.0794 µM.

As to `COc1cccc2c(C(=O)NCc3cccc(Cl)c3)cn(CCCN3CCC(c4nc5ccccc5s4)CC3)c12`, the IC50 is 0.0794 µM.

`COc1cccc2c(C(=O)NCc3cccc(Cl)c3)cn(CCCN3C4CCC3CC(CC(=O)c3ccccc3)C4)c12` (stereo not drawn): the IC50 was 0.0794 µM.

Turning to `COc1cccc2c(C(=O)NCC(C)C)cn(CCCN3CCCN(CCc4ccccc4)CC3)c12`, the IC50 was 0.1 µM.

As to `CCCCC[C@H]1C[C@H]2CC[C@@H](C1)N2CCCn1cc(C(C)=O)c2ccccc21`, the IC50 was 0.1 µM.

For `CCCOC1CCN(CCCn2cc(C(=O)CC)c3cc(Br)ccc32)CC1`, the IC50 is 0.158 µM.

As to `COc1cccc2c(C(=O)NCc3cccc(Cl)c3)cn(CCCNCCOc3ccccc3)c12`, the IC50 was 0.251 µM.

On to `COc1cccc2c(C(=O)NCc3cccc(Cl)c3)cn(CCCN3CCN(CCOc4ccc(Cl)cc4)CC3)c12`, for which the IC50 is 0.251 µM.

In the case of `Cc1cccc(CNC(=O)c2cn(CCCN3C4CCC3CC(CCc3ccccc3)C4)c3ccccc23)c1` (stereo not drawn), the IC50 is 0.316 µM.

As for `CC(=O)c1cn(CCCN2[C@@H]3CC[C@H]2C[C@@H](Oc2ccc(Cl)cc2)C3)c2ccccc12`, the IC50 was 0.398 µM.

Turning to `COc1cccc2c(C(=O)NCc3cccc(C)c3)cn(CCCNC3Cc4ccccc4C3)c12`, the IC50 was 0.398 µM.

As for `COc1cccc2c(C(=O)NCc3cccc(C)c3)cn(CCCN3CCN(CCOc4ccc(Cl)cc4)CC3)c12`, the IC50 was 0.501 µM.

Consider `COc1cccc2c(C(=O)NCc3cccc(Cl)c3)cn(CCCNC3Cc4ccccc4C3)c12`, for which the IC50 was 0.794 µM.

For the compound `COc1cccc2c(C(=O)c3ccccc3)cn(CCCN3CCN(CCOc4ccc(Cl)cc4)CC3)c12`, the IC50 was 1 µM.

Still in this assay, the particulars now being: percent inhibition at saturating ligand, normalized to reference ligand Substance P analog = 100%; read-out: RSAT Eff(%).
For `CC(=O)c1c(C)n(CCCN2CCC(Oc3cccc(Cl)c3)CC2)c2c(Br)cccc12`, the Emax was found to be 35%.

Take `CC(=O)c1cn(CCCN2CCCC(Cc3ccccc3Cl)C2)c2c(C#N)cccc12` (stereo not drawn): the Emax is 22%.

For `CC(=O)c1c(C)n(CCCN2C3CCC2CC(Oc2ccc(F)cc2)C3)c2c(Br)cccc12` (stereo not drawn), the Emax was 1%.

Still in this assay, the particulars now being: read-out: RSAT Eff(%).
Consider `COc1cccc2c(C(=O)NCc3cccc(Cl)c3)cn(CCCN3CCN(CCOc4ccccc4)CC3)c12`, for which the Emax was found to be 101%.

Take `COc1cccc2c(C(=O)NCc3cccc(C)c3)cn(CCCN3CCC(c4nc(-c5cccnc5)no4)CC3)c12`: the Emax was found to be 97%.

Regarding `COc1cccc2c(C(=O)NCc3cccc(Cl)c3)cn(CCCN3CCC(c4nc5ccccc5s4)CC3)c12`, the Emax came out at 112%.

As to `COc1cccc2c(C(=O)NCc3cccc(Cl)c3)cn(CCCN3C4CCC3CC(CC(=O)c3ccccc3)C4)c12` (stereo not drawn), the Emax was found to be 104%.

In the case of `COc1cccc2c(C(=O)NCC(C)C)cn(CCCN3CCCN(CCc4ccccc4)CC3)c12`, the Emax stood at 114%.

For the compound `CCCCC[C@H]1C[C@H]2CC[C@@H](C1)N2CCCn1cc(C(C)=O)c2ccccc21`, the Emax worked out at 118%.

For the compound `CCCOC1CCN(CCCn2cc(C(=O)CC)c3cc(Br)ccc32)CC1`, the Emax was determined as 90%.

Take `COc1cccc2c(C(=O)NCc3cccc(Cl)c3)cn(CCCNCCOc3ccccc3)c12`: the Emax was 120%.

Regarding `COc1cccc2c(C(=O)NCc3cccc(Cl)c3)cn(CCCN3CCN(CCOc4ccc(Cl)cc4)CC3)c12`, the Emax was determined as 104%.

As for `Cc1cccc(CNC(=O)c2cn(CCCN3C4CCC3CC(CCc3ccccc3)C4)c3ccccc23)c1` (stereo not drawn), the Emax was found to be 108%.

On to `CC(=O)c1cn(CCCN2[C@@H]3CC[C@H]2C[C@@H](Oc2ccc(Cl)cc2)C3)c2ccccc12`, for which the Emax amounted to 107%.

Consider `COc1cccc2c(C(=O)NCc3cccc(C)c3)cn(CCCNC3Cc4ccccc4C3)c12`, for which the Emax stood at 84%.

For `COc1cccc2c(C(=O)NCc3cccc(C)c3)cn(CCCN3CCN(CCOc4ccc(Cl)cc4)CC3)c12`, the Emax was found to be 79%.

Consider `COc1cccc2c(C(=O)NCc3cccc(Cl)c3)cn(CCCNC3Cc4ccccc4C3)c12`, for which the Emax worked out at 133%.

As to `COc1cccc2c(C(=O)c3ccccc3)cn(CCCN3CCN(CCOc4ccc(Cl)cc4)CC3)c12`, the Emax came out at 66%.

Regarding `COc1cccc2c(C(=O)NCc3cccc(C)c3)cn(CCCNCCOc3ccccc3)c12`, the Emax amounted to 52%.

For the compound `COc1cccc2c(C(=O)NCC(C)C)cn(CCCN3CCC(CCOc4ccc(Cl)cc4)CC3)c12`, the Emax worked out at 45%.

With `COc1cccc2c(C(=O)NCc3cccc(Cl)c3)cn(CCCN3CCC(CCOc4ccc(Cl)cc4)CC3)c12`, the Emax came to 46%.

The target of another assay is T1, GHSR1a receptor (Homo sapiens, UniProt Q92847).
T1 construct: expressed in transfected cells; host or cells: HEK293 (membranes)
T1 sequence (Q92847 whole entry): as above
The experiment in a line: 125I-Ghrelin binding assay. The following applies: Binding pKi, displacement of 125I-ghrelin (0.053 nM), membranes of HEK293 cells transfected with GHSR1a; Cheng-Prussoff; '—' not defined. Here is the method:
Plasmid DNA containing the GHSR1a receptor (12.5 ug/dish) in 0.675 ml DMEM was transfected into the cells by mixing with 180 ul PolyFect, 15 min later mixing in 2.25 ml 10% CS/DMEM, and transferring the mixture into the dish. At 16-18 h post transfection, medium was replaced with 25 ml fresh 10% FCS/1% PSG/DMEM to each dish for another 18-20 h. At approximately 48 hours post-transfection, cells were harvested in ice-cold membrane buffer (20 mM HEPES, 6 mM MgCl2, 1 mM EDTA, pH to 7.2) using a cell scraper, and pelleted by centrifugation.
Pelleted cells were added to a nitrogen cavitation chamber and 900 bar of pressure applied for 30 min. The pressure was slowly released the cavitated cells collected in 50 ml falcon tubes. The tubes were centrifuged at 1000 rpm, 4° C. for 10 min, and the supernatant collected. This centrifugation and collection was repeated two more times until the supernatant was free of precipitate (membranes are still in suspension). The supernatant was poured into a 50 ml centrifuge tube and centrifuged at 10.000 rpm, 4° C. for 20 min. The supernatant was discarded and the pellet re-suspended in 750 μl membrane binding buffer using a chilled 1 ml syringe with 25G5/8 needle to re-suspend membranes. The protein concentration was determined using the BioRad Protein Assay Dye Reagent according to the manufacturers instructions. The protein concentration was adjusted to 5 mg/ml and aliquots snap-frozed and stored at −80 C until use.
Membranes were thawed rapidly; diluted with binding buffer (25 mM Hepes+5 mM MgCl2, 1 mM CaCl2, 2.5 mM EDTA and 0.2% BSA) to a protein concentration of 0.8 ug/30 ul and placed on ice. 96-well plates (U-bottom wells) were prepared with serial dilutions (8 doses, 40 ul/w) of the test compounds. Membranes (30 uL/well) were then added, and incubated with test ligands for 30 min at room temperature with shaking. […] Binding was terminated by filtration through GF/B filters (presoaked with 0.1% polyethylenimine) with a Brandel 96-well harvester. The filters were washed with ice-cold binding buffer (150 ml/plate) and allowed to air-dry for 30 min. 50 ul MicroScient-20 cocktail was added to each dried well, the plates were sealed, and counted for 2 min/well using a TopCount scintillation counter (Packard).
(In general: Loss of bound radioactivity is the signal in a displacement assay; it reports binding, not function.)
For orientation: pKi means the Ki on a negative log10 scale, so that one unit is a factor of ten. A higher pKi goes with a small Ki. Consider `COc1cccc2c(C(=O)NCc3cccc(Cl)c3)cn(CCCN3CCN(CCOc4ccccc4)CC3)c12`, for which the pKi was 8.20.

On to `COc1cccc2c(C(=O)NCc3cccc(C)c3)cn(CCCN3CCC(c4nc(-c5cccnc5)no4)CC3)c12`, for which the pKi was 6.80.

Consider `COc1cccc2c(C(=O)NCc3cccc(Cl)c3)cn(CCCN3CCC(c4nc5ccccc5s4)CC3)c12`, for which the pKi is 6.60.

On to `COc1cccc2c(C(=O)NCc3cccc(Cl)c3)cn(CCCN3C4CCC3CC(CC(=O)c3ccccc3)C4)c12` (stereo not drawn), for which the pKi is 6.70.

On to `COc1cccc2c(C(=O)NCC(C)C)cn(CCCN3CCCN(CCc4ccccc4)CC3)c12`, for which the pKi is 6.10.

Regarding `CCCCC[C@H]1C[C@H]2CC[C@@H](C1)N2CCCn1cc(C(C)=O)c2ccccc21`, the pKi is 5.60.

For the compound `CCCOC1CCN(CCCn2cc(C(=O)CC)c3cc(Br)ccc32)CC1`, the pKi was 5.00.

`COc1cccc2c(C(=O)NCc3cccc(Cl)c3)cn(CCCNCCOc3ccccc3)c12` gave a pKi of 7.40.

On to `COc1cccc2c(C(=O)NCc3cccc(Cl)c3)cn(CCCN3CCN(CCOc4ccc(Cl)cc4)CC3)c12`, for which the pKi was 7.80.

The compound `Cc1cccc(CNC(=O)c2cn(CCCN3C4CCC3CC(CCc3ccccc3)C4)c3ccccc23)c1` (stereo not drawn) gave a pKi of 6.20.

In turn, `CC(=O)c1cn(CCCN2[C@@H]3CC[C@H]2C[C@@H](Oc2ccc(Cl)cc2)C3)c2ccccc12` showed a pKi of 5.10.

For `COc1cccc2c(C(=O)NCc3cccc(C)c3)cn(CCCNC3Cc4ccccc4C3)c12`, the pKi is 7.10.

`COc1cccc2c(C(=O)NCc3cccc(C)c3)cn(CCCN3CCN(CCOc4ccc(Cl)cc4)CC3)c12`: the pKi was 6.90.

The compound `COc1cccc2c(C(=O)NCc3cccc(Cl)c3)cn(CCCNC3Cc4ccccc4C3)c12` had a pKi of 7.20.

Turning to `COc1cccc2c(C(=O)c3ccccc3)cn(CCCN3CCN(CCOc4ccc(Cl)cc4)CC3)c12`, the negative-log Ki (pKi) is 6.90.

The compound `COc1cccc2c(C(=O)NCc3cccc(C)c3)cn(CCCNCCOc3ccccc3)c12` gave a pKi of 7.00.

`COc1cccc2c(C(=O)NCC(C)C)cn(CCCN3CCC(CCOc4ccc(Cl)cc4)CC3)c12` gave a pKi of 6.80.

Consider `COc1cccc2c(C(=O)NCc3cccc(Cl)c3)cn(CCCN3CCC(CCOc4ccc(Cl)cc4)CC3)c12`, for which the pKi was 6.60.

Still in this assay, the particulars now being: displacement of 125I-ghrelin (0.053 nM), membranes of HEK293 cells transfected with GHSR1a; Cheng-Prussoff; '—' not defined; read-out: Binding pKi (converted).
Regarding `CC(=O)c1c(C)n(CCCN2CCC(Oc3cccc(Cl)c3)CC2)c2c(Br)cccc12`, the Ki is 0.631 µM.

Consider `CC(=O)c1cn(CCCN2CCCC(Cc3ccccc3Cl)C2)c2c(C#N)cccc12` (stereo not drawn), for which the Ki is 0.794 µM.

Consider `CC(=O)c1c(C)n(CCCN2C3CCC2CC(Oc2ccc(F)cc2)C3)c2c(Br)cccc12` (stereo not drawn), for which the Ki was 1.58 µM.
